Consider twelve molecules from ChEMBL document CHEMBL3045290, “Novel salicylamide derivatives incorporating neonicotinoid pharmacophore: design, synthesis, characterization, and biological evaluation” (2013).

A word on the mortality: it is the percentage killed.

What all share (format): functional
The subject of test [1] is Helicoverpa armigera. Nature of the test: Insecticidal activity against Helicoverpa armigera fed on artificial diet containing compound assessed as mortality at 500 ug/ml after 96 hr.
In test [2] the test system is Helicoverpa armigera. Nature of the test: Insecticidal activity against Helicoverpa armigera fed on artificial diet containing compound assessed as mortality at 1000 ug/ml after 96 hr.
Test [3] deals with Plutella xylostella. Nature of the test: Insecticidal activity against Plutella xylostella (diamondback moth) fed on artificial diet containing compound assessed as mortality at 1000 ug/ml after 96 hr.
Test [4] relates to Plutella xylostella. Briefly: Insecticidal activity against Plutella xylostella (diamondback moth) fed on artificial diet containing compound assessed as mortality at 31.25 ug/ml after 96 hr.
The test system of test [5] is Plutella xylostella. Nature of the test: Insecticidal activity against Plutella xylostella (diamondback moth) fed on artificial diet containing compound assessed as mortality at 250 ug/ml after 96 hr.
Test [6] deals with Helicoverpa armigera. Nature of the test: Insecticidal activity against Helicoverpa armigera fed on artificial diet containing compound assessed as mortality at 31.25 ug/ml after 96 hr.
The subject of test [7] is Helicoverpa armigera. Nature of the test: Insecticidal activity against Helicoverpa armigera fed on artificial diet containing compound assessed as mortality at 125 ug/ml after 96 hr.
Test [8] concerns Helicoverpa armigera. Nature of the test: Insecticidal activity against Helicoverpa armigera fed on artificial diet containing compound assessed as mortality at 62.5 ug/ml after 96 hr.
Test [9] relates to Plutella xylostella. Briefly: Insecticidal activity against Plutella xylostella (diamondback moth) fed on artificial diet containing compound assessed as mortality at 62.5 ug/ml after 96 hr.
Test [10] concerns Plutella xylostella. Nature of the test: Insecticidal activity against Plutella xylostella (diamondback moth) fed on artificial diet containing compound assessed as mortality at 500 ug/ml after 96 hr.
Test [11] deals with Helicoverpa armigera. Briefly: Insecticidal activity against Helicoverpa armigera fed on artificial diet containing compound assessed as mortality at 250 ug/ml after 96 hr.
Test [12] relates to Plutella xylostella. Briefly: Insecticidal activity against Plutella xylostella (diamondback moth) fed on artificial diet containing compound assessed as mortality at 125 ug/ml after 96 hr.

On to `O=C(Nc1cc(Cl)c(OC(F)(F)C(F)F)c(Cl)c1)c1ccccc1OCc1ccc(Cl)nc1`, for which the mortality at 500 µg/mL in test [1] was 41%; in [10], 100%. Also, the mortality at 1000 µg/mL in test [2] and in test [3] was 100% in each case. For the same molecule, the mortality at 31.25 µg/mL is 41% in [4] and 0% in test [6]. Further, the mortality at 250 µg/mL in [5] was 100%; in test [11], 41%. For the same molecule, the mortality at 125 µg/mL worked out at 0% in [7] and 100% in [12]. For the same molecule, the mortality at 62.5 µg/mL in test [8] stood at 0%; in test [9], 41%.

Regarding `O=C(Nc1ccccn1)c1ccccc1OCc1ccc(Cl)nc1`, the mortality at 500 µg/mL is 0% in [1] and 41% in [10]. The mortality at 1000 µg/mL in test [2] amounted to 0%; in test [3], 100%. Also, the mortality at 31.25 µg/mL in test [4] and in test [6] was 0% throughout. In addition, the mortality at 250 µg/mL in test [5] is 41%; in test [11], 0%. Further, the mortality at 125 µg/mL in test [7] and in test [12] was 0% in each case. The mortality at 62.5 µg/mL in test [8] and in test [9] was 0% in each case.

`N#CCN(C(=O)c1ccccc1OCc1ccc(Cl)nc1)c1ccccc1`: the mortality at 500 µg/mL in test [1] came out at 81%; in test [10] it was 0%. In addition, the mortality at 1000 µg/mL in test [2] amounted to 100%; in test [3], 0%. Also, the mortality at 31.25 µg/mL in test [4] and in test [6] was 0% in each case. Moreover, the results for the mortality at 250 µg/mL in test [5] and in test [11] were 0% and 41%, respectively. For the same molecule, the values for the mortality at 125 µg/mL in [7] and in test [12] were 41% and 0%, respectively. Moreover, the mortality at 62.5 µg/mL in [8] and in test [9] was 0% each time.

Consider `CCN(CC)C(=O)c1ccccc1OCc1ccc(Cl)nc1`, for which the mortality at 500 µg/mL in [1] and in test [10] was 0% each time. Further, the mortality at 1000 µg/mL in test [2] and in test [3] was 41% each time. The mortality at 31.25 µg/mL in test [4] and in [6] was 0% each time. The mortality at 250 µg/mL in test [5] and in test [11] was 0% throughout. In addition, the mortality at 125 µg/mL in test [7] and in [12] was 0% in each case. The mortality at 62.5 µg/mL in test [8] and in test [9] was 0% throughout.

Regarding `CC(C)N(C(=O)c1ccccc1OCc1ccc(Cl)nc1)C(C)C`, the mortality at 500 µg/mL in test [1] and in test [10] was 100% each time. Further, the mortality at 1000 µg/mL in test [2] and in [3] was 100% throughout. The mortality at 31.25 µg/mL in test [4] and in [6] was 0% in each case. Also, the figures for the mortality at 250 µg/mL in [5] and in [11] were 100% and 41%, respectively. The mortality at 125 µg/mL in [7] and in test [12] was 41% each time. Besides, the mortality at 62.5 µg/mL in test [8] and in test [9] was 0% each time.

For the molecule `O=C(Nc1cc(C(F)(F)F)cc(C(F)(F)F)c1)c1ccccc1OCc1ccc(Cl)nc1`, the mortality at 500 µg/mL in test [1] and in test [10] was 0% each time. Also, the mortality at 1000 µg/mL in test [2] and in test [3] was 0% throughout. The mortality at 31.25 µg/mL in test [4] and in test [6] was 0% each time. Moreover, the mortality at 250 µg/mL in test [5] and in [11] was 0% each time. For the same molecule, the mortality at 125 µg/mL in test [7] and in [12] was 0% in each case. For the same molecule, the mortality at 62.5 µg/mL in test [8] and in [9] was 0% each time.

Regarding `O=C(NC1CCCCC1)c1ccccc1OCc1ccc(Cl)nc1`, the mortality at 500 µg/mL in test [1] and in test [10] was 0% in each case. Further, the values for the mortality at 1000 µg/mL in [2] and in test [3] were 0% and 41%, respectively. Further, the mortality at 31.25 µg/mL in test [4] and in test [6] was 0% in each case. Moreover, the mortality at 250 µg/mL in test [5] and in [11] was 0% in each case. For the same molecule, the mortality at 125 µg/mL in test [7] and in test [12] was 0% in each case. For the same molecule, the mortality at 62.5 µg/mL in test [8] and in test [9] was 0% throughout.

In the case of `CC(C)c1ccc(NC(=O)c2ccccc2OCc2ccc(Cl)nc2)cc1`, the mortality at 500 µg/mL stood at 81% in test [1] and 100% in [10]. In addition, the mortality at 1000 µg/mL in test [2] and in test [3] was 100% each time. The mortality at 31.25 µg/mL in test [4] turned out to be 0%; in test [6], 41%. The mortality at 250 µg/mL in test [5] is 100%; in test [11], 61%. The mortality at 125 µg/mL in test [7] worked out at 61%; in test [12] it was 41%. The mortality at 62.5 µg/mL in [8] and in test [9] was 41% in each case.

Turning to `COc1ccc(NC(=O)c2ccccc2OCc2ccc(Cl)nc2)cc1`, the figures for the mortality at 500 µg/mL in test [1] and in [10] were 0% and 100%, respectively. Besides, the values for the mortality at 1000 µg/mL in test [2] and in [3] were 0% and 100%, respectively. Moreover, the mortality at 31.25 µg/mL in test [4] is 41%; in test [6] it was 0%. For the same molecule, the figures for the mortality at 250 µg/mL in test [5] and in test [11] were 100% and 0%, respectively. For the same molecule, the mortality at 125 µg/mL in test [7] stood at 0%; in test [12] it was 100%. Besides, the mortality at 62.5 µg/mL in [8] was 0%; in [9], 81%.

Take `Cc1cc(Cl)ccc1NC(=O)c1ccccc1OCc1ccc(Cl)nc1`: the mortality at 500 µg/mL in test [1] and in test [10] was 41% each time. Besides, the mortality at 1000 µg/mL in test [2] and in [3] was 100% each time. Besides, the mortality at 31.25 µg/mL in test [4] and in test [6] was 0% each time. For the same molecule, the mortality at 250 µg/mL in test [5] and in test [11] was 41% throughout. For the same molecule, the mortality at 125 µg/mL is 0% in test [7] and 41% in [12]. Besides, the mortality at 62.5 µg/mL in test [8] and in test [9] was 0% each time.

For `O=C(c1ccccc1OCc1ccc(Cl)nc1)N1CCOCC1`, the mortality at 500 µg/mL amounted to 41% in test [1] and 0% in test [10]. For the same molecule, the mortality at 1000 µg/mL in [2] stood at 100%; in test [3], 41%. For the same molecule, the mortality at 31.25 µg/mL in [4] and in test [6] was 0% in each case. Also, the mortality at 250 µg/mL in test [5] and in test [11] was 0% in each case. Besides, the mortality at 125 µg/mL in [7] and in test [12] was 0% in each case. For the same molecule, the mortality at 62.5 µg/mL in test [8] and in [9] was 0% throughout.

On to `O=C(Nc1ccc(I)cc1)c1ccccc1OCc1ccc(Cl)nc1`, for which the mortality at 500 µg/mL stood at 0% in test [1] and 100% in test [10]. The results for the mortality at 1000 µg/mL in test [2] and in test [3] were 0% and 100%, respectively. Moreover, the mortality at 31.25 µg/mL in test [4] and in test [6] was 0% throughout. Moreover, the mortality at 250 µg/mL is 100% in test [5] and 0% in test [11]. Further, the mortality at 125 µg/mL in [7] was 0%; in test [12] it was 41%. For the same molecule, the mortality at 62.5 µg/mL in [8] and in test [9] was 0% in each case.
